Measured values: publication PMC4743925, “Targeting an Essential GTPase Obg for the Development of Broad-Spectrum Antibiotics” (PLoS ONE, 2016)

How the values were obtained:
[1] = molecular target: T1, ObgGC (Neisseria gonorrhoeae, UniProt Q5F5D9); experiment: mant-nucleotide fluorescence increase; type: binding; conditions: 2 μM protein, labelled compound
T1 construct: gene obg; full-length with C-terminal 6xHis tag, expressed in E. coli BL21(DE3), IMAC and size exclusion; tag not reported cut

[2] = molecular target: T2, ObgKP (Klebsiella pneumoniae, UniProt A6TEK2); experiment: mant-nucleotide fluorescence increase; type: binding; conditions: 2 μM protein, labelled compound
T2 construct: gene obg; residues 1-392, N-terminal 6xHis tag and TEV site (modified pCDF-Duet1, pKV1414), expressed in E. coli BL21(DE3); tag not reported cut

[3] = 0.3 μM mant-GTP, 5 mM MgCl2, 37 °C

T1 sequence (Q5F5D9 whole entry): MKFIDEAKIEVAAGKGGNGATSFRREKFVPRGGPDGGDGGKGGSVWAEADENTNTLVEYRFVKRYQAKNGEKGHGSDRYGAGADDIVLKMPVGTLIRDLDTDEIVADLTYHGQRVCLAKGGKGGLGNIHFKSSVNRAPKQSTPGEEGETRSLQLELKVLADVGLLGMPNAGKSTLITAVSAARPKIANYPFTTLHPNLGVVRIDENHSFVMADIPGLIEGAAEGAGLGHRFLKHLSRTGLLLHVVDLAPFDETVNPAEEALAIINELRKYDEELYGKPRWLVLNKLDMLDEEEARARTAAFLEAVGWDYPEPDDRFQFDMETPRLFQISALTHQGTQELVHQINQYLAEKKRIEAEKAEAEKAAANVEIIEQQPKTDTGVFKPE
T2 sequence (A6TEK2 whole entry, the tested form may be a part): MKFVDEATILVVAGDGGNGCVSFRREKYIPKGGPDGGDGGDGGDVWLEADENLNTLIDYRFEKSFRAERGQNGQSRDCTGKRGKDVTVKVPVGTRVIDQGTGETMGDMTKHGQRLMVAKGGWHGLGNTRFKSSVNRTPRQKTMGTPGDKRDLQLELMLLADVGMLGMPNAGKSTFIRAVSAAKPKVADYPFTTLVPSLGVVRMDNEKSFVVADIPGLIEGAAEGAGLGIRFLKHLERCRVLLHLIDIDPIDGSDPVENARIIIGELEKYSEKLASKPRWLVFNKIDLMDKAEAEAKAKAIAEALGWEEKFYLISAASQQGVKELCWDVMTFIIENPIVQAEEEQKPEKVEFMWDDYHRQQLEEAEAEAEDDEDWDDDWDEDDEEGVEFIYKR

Row | Compound | increase in RFU [1, 3] | fold increase in RFU [2, 3] | increase in RFU ([1]; 0.3 μM mant-GDP, no MgCl2, 37 °C) | fold increase in RFU ([2]; 0.3 μM mant-GDP, 37 °C)
1 | CNc1ccccc1C(=O)O[C@H]1[C@@H](O)[C@H](n2cnc3c(=O)[nH]c(N)nc32)O[C@@H]1COP(=O)(O)OP(=O)(O)OP(=O)(O)O [mant-GTP] | Assessment of mant-nucleotides binding by wild type (ObgGC) and mutated (*ObgGC) | ~ 1.8 fold | – | –
2 | CNc1ccccc1C(=O)O[C@H]1[C@@H](O)[C@H](n2cnc3c(=O)[nH]c(N)nc32)O[C@@H]1COP(=O)(O)OP(=O)(O)O [mant-GDP] | – | – | Assessment of mant-nucleotides binding by wild type (ObgGC) and mutated (*ObgGC) | ~ 1.3 fold
